Experimental data taken from PubChem BioAssay AID2060615 (Molecular Pharmacology Branch, DTP, NCI, 2025).

System: 496974-208-R-J2-PDC complex spheroids, growth % test/control
Assay: Anticancer human tumor 496974-208-R-J2-PDC patient-derived pancreatic carcinoma cell line growth inhibition [CLK]
Settings: for IC50: curve of first compound; for viability, T/C: stronger effect = lower value; active means viability on the fitted dose curve at most 10% of control; inactive means the rest
Procedure, shortened: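 Patient-derived tumor cells grown as complex spheroids with HUVEC endothelial cells and mesenchymal stem cells, treated with drug combinations. Concentrations descend in half-log steps from near clinical Cmax, or from 10 microM if Cmax unknown.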

[1] = second compound 0.0316 µM, first compound 0.0316 µM
[2] = second compound 0.0316 µM, first compound 0.1 µM
[3] = second compound 0.0316 µM, first compound 0.316 µM
[4] = second compound 0.0316 µM, first compound 1 µM
[5] = second compound 0.0316 µM, first compound 3.16 µM
[6] = second compound 0.0316 µM, first compound 10 µM
[7] = second compound 0.1 µM, first compound 0.0316 µM
[8] = second compound 0.1 µM, first compound 0.1 µM
[9] = second compound 0.1 µM, first compound 0.316 µM
[10] = second compound 0.1 µM, first compound 1 µM
[11] = second compound 0.1 µM, first compound 3.16 µM
[12] = second compound 0.1 µM, first compound 10 µM
[13] = second compound 0.316 µM, first compound 0.0316 µM
[14] = second compound 0.316 µM, first compound 0.1 µM
[15] = second compound 0.316 µM, first compound 0.316 µM
[16] = second compound 0.316 µM, first compound 1 µM
[17] = second compound 0.316 µM, first compound 3.16 µM
[18] = second compound 0.316 µM, first compound 10 µM
[19] = second compound 1 µM, first compound 0.0316 µM
[20] = second compound 1 µM, first compound 0.1 µM
[21] = second compound 1 µM, first compound 0.316 µM
[22] = second compound 1 µM, first compound 1 µM
[23] = second compound 1 µM, first compound 3.16 µM
[24] = second compound 1 µM, first compound 10 µM
[25] = second compound 3.16 µM, first compound 0.0316 µM
[26] = second compound 3.16 µM, first compound 0.1 µM
[27] = second compound 3.16 µM, first compound 0.316 µM
[28] = second compound 3.16 µM, first compound 1 µM
[29] = second compound 3.16 µM, first compound 3.16 µM
[30] = second compound 3.16 µM, first compound 10 µM
[31] = second compound 10 µM, first compound 0.0316 µM
[32] = second compound 10 µM, first compound 0.1 µM
[33] = second compound 10 µM, first compound 0.316 µM
[34] = second compound 10 µM, first compound 1 µM
[35] = second compound 10 µM, first compound 3.16 µM
[36] = second compound 10 µM, first compound 10 µM
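Further: spheroids exposed to the drugs for 7 days before readout.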
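Wherever viability, T/C is given: 100% = DMSO vehicle control wells.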

C#Cc1c(F)ccc2cc(O)cc(-c3ncc4c(N5CC6CCC(C5)N6)nc(OCC56CCCN5CC(F)C6)nc4c3F)c12 (centres undefined) + CNC(=O)c1ccc(Nc2nc(OC3CCCC3)c3c(-c4ccc5nc(C)oc5c4)c[nH]c3n2)c(OC)c1
0.0335 µM: IC50 (second compound 0.1 µM)
0.204 µM: IC50 (second compound 0.0316 µM)
< 0.0316 µM: IC50 (second compound 0.316 µM) | IC50 (second compound 1 µM) | IC50 (second compound 3.16 µM) | IC50 (second compound 10 µM)
inactive: viability, T/C [1] 62.4% | viability, T/C [2] 56.8% | viability, T/C [3] 46.1% | viability, T/C [4] 42.2% | viability, T/C [5] 42.9% | viability, T/C [6] 41% | viability, T/C [7] 57.7% | viability, T/C [8] 46.7% | viability, T/C [9] 35% | viability, T/C [10] 37.2% | viability, T/C [11] 34.6% | viability, T/C [12] 43.1% | viability, T/C [13] 45.2% | viability, T/C [14] 40.2% | viability, T/C [15] 37.2% | viability, T/C [16] 33% | viability, T/C [17] 33.5% | viability, T/C [18] 31% | viability, T/C [19] 37.8% | viability, T/C [20] 32.5% | viability, T/C [21] 31.2% | viability, T/C [22] 28.1% | viability, T/C [23] 31.3% | viability, T/C [24] 28.4% | viability, T/C [25] 33.5% | viability, T/C [26] 30.4% | viability, T/C [27] 27.2% | viability, T/C [28] 25.8% | viability, T/C [29] 27.6% | viability, T/C [30] 23.8% | viability, T/C [31] 30.1% | viability, T/C [32] 27.9% | viability, T/C [33] 27% | viability, T/C [34] 22.8% | viability, T/C [35] 23.5% | viability, T/C [36] 21.2%

CC(CO)NC(=O)c1cc(-c2ccc(Cl)cc2)nn(-c2cnn(C)c2)c1=O (centres undefined) + CNC(=O)c1ccc(Nc2nc(OC3CCCC3)c3c(-c4ccc5nc(C)oc5c4)c[nH]c3n2)c(OC)c1
3.29 µM: IC50 (second compound 1 µM)
> 10 µM: IC50 (second compound 0.0316 µM)
6.97 µM: IC50 (second compound 0.316 µM)
4.14 µM: IC50 (second compound 10 µM)
5.16 µM: IC50 (second compound 3.16 µM)
inactive: viability, T/C [1] 103% | viability, T/C [2] 91.4% | viability, T/C [3] 92.8% | viability, T/C [4] 90.4% | viability, T/C [5] 89.1% | viability, T/C [6] 55% | viability, T/C [7] 87.3% | viability, T/C [8] 74.5% | viability, T/C [9] 80.8% | viability, T/C [10] 63.1% | viability, T/C [11] 65.4% | viability, T/C [12] 42.6% | viability, T/C [13] 79.2% | viability, T/C [14] 67.3% | viability, T/C [15] 72.6% | viability, T/C [16] 69% | viability, T/C [17] 59.4% | viability, T/C [18] 44.9% | viability, T/C [19] 71% | viability, T/C [20] 71.8% | viability, T/C [21] 63.5% | viability, T/C [22] 59.7% | viability, T/C [23] 50.9% | viability, T/C [24] 37.9% | viability, T/C [25] 62.4% | viability, T/C [26] 57.9% | viability, T/C [27] 52% | viability, T/C [28] 58.4% | viability, T/C [29] 56.6% | viability, T/C [30] 41.1% | viability, T/C [31] 55.5% | viability, T/C [32] 54.8% | viability, T/C [33] 49.8% | viability, T/C [34] 47.1% | viability, T/C [35] 56.5% | viability, T/C [36] 41%
6.65 µM: IC50 (second compound 0.1 µM)
